In brackets after ≈: the same amount, converted by molar mass.
test system: M. tuberculosis; test: microbe, parasite or virus in culture; assay type: cell-based; settings: Mycobacterium tuberculosis, 120 h; read-out: QUM (MIC80)

| SMILES | MIC80 [µM] |
| --- | --- |
| CCc1nc2ccc(Cl)cn2c1C(=O)NCc1ccc(N2CCC(c3ccc(C(F)(F)F)cc3)CC2)cc1 [Compound 158] | < 1 |
| CCc1nc2ccc(Br)cn2c1C(=O)NCc1ccc(N2CCC(c3ccc(Cl)cc3)CC2)cc1 [Compound 159] | < 1 |
| CCc1nc2c(Cl)cccn2c1C(=O)NCc1ccc(N2CCN(c3ccc(C)cc3)CC2)cc1 [Compound 160] | < 1 |
| CCc1nc2c(F)cccn2c1C(=O)NCc1ccc(N2CCN(c3ccc(C(F)(F)F)cc3)CC2)cc1 [Compound 161] | < 1 |
| CCc1nc2ccc(F)cn2c1C(=O)NCc1ccc(N2CCC(c3ccc(Cl)cc3)CC2)cc1 [Compound 162] | < 1 |
| CCc1nc2cc(C)ccn2c1C(=O)NCc1ccc(N2CCC(c3ccc(F)cc3)CC2)cc1 [Compound 163] | < 1 |
| CCc1nc2cc(F)ccn2c1C(=O)NCc1ccc(N2CCC(c3ccc(C(F)(F)F)cc3)CC2)cc1 [Compound 164] | < 1 |
| CCc1nc2ccc(F)cn2c1C(=O)NCc1ccc(N2CCC(c3ccccc3)CC2)cc1 [Compound 165] | < 1 |
| CCc1nc2cc(F)ccn2c1C(=O)NCc1ccc(N2CCC(c3ccccc3)CC2)cc1 [Compound 166] | < 1 |
| CCc1nc2c(F)cccn2c1C(=O)NCc1ccc(N2CCC(c3ccccc3)CC2)cc1 [Compound 167] | < 1 |
| CCc1nc2c(Br)cccn2c1C(=O)NCc1ccc(N2CCC(c3ccccc3)CC2)cc1 [Compound 168] | 1 to 20 (≈ 0.517 to 10.3 µg/mL) |
| CCc1nc2ccc(C(F)(F)F)cn2c1C(=O)NCc1ccc(N2CCC(c3ccc(C)cc3)CC2)cc1 [Compound 169] | < 1 |
| CCc1nc2ccccn2c1C(=O)NCc1ccc(N2CCC(c3ccccc3)CC2)cc1 [Compound 170] | < 1 |
| CCc1nc2ccc(OC)cn2c1C(=O)NCc1ccc(N2CCC(c3ccc(Cl)cc3)CC2)cc1 [Compound 172] | < 1 |
| CCc1nc2c(C)cccn2c1C(=O)NCc1ccc(N2CCC(c3ccc(Cl)cc3)CC2)cc1 [Compound 173] | < 1 |
| CCc1nc2ccc(C)cn2c1C(=O)NCc1ccc(N2CCC(c3ccc(OC(F)(F)F)cc3)CC2)cc1 [Compound 174] | < 1 |
| CCc1nc2c(F)cccn2c1C(=O)NCc1ccc(N2CCC(c3ccc(Cl)cc3)CC2)cc1 [Compound 176] | < 1 |
| CCc1nc2c(OC)cccn2c1C(=O)NCc1ccc(N2CCC(c3ccccc3)CC2)cc1 [Compound 177] | < 1 |
| CCc1nc2ccc(C(F)(F)F)cn2c1C(=O)NCc1ccc(N2CCC(c3ccccc3)CC2)cc1 [Compound 178] | < 1 |
| CCc1nc2ccc(OC)cn2c1C(=O)NCc1ccc(N2CCC(c3ccc(F)cc3)CC2)cc1 [Compound 179] | < 1 |
| CCc1nc2ccccn2c1C(=O)NCc1ccc(N2CCC(c3ccc(OC)cc3)CC2)cc1 [Compound 180] | < 1 |
| CCc1nc2c(C)cccn2c1C(=O)NCc1ccc(N2CCC(c3ccc(OC(F)(F)F)cc3)CC2)cc1 [Compound 181] | < 1 |
| CCc1nc2ccc(OC)cn2c1C(=O)NCc1ccc(N2CCC(c3ccc(OC(F)(F)F)cc3)CC2)cc1 [Compound 182] | < 1 |
| CCc1nc2c(Cl)cccn2c1C(=O)NCc1ccc(N2CCC(c3ccc(F)cc3)CC2)cc1 [Compound 183] | < 1 |
| CCc1nc2cc(OC)ccn2c1C(=O)NCc1ccc(N2CCC(c3ccc(OC(F)(F)F)cc3)CC2)cc1 [Compound 184] | < 1 |

| SMILES | MIC80 [µM] |
| --- | --- |
| CCc1nc2c(Br)cccn2c1C(=O)NCc1ccc(N2CCC(c3ccc(OC(F)(F)F)cc3)CC2)cc1 [Compound 185] | 1 to 20 (≈ 0.601 to 12 µg/mL) |
| CCc1nc2cc(C(F)(F)F)ccn2c1C(=O)NCc1ccc(N2CCC(c3ccc(Cl)cc3)CC2)cc1 [Compound 186] | < 1 |
| CCc1nc2ccc(Br)cn2c1C(=O)NCc1ccc(N2CCC(c3ccc(OC(F)(F)F)cc3)CC2)cc1 [Compound 187] | < 1 |
| CCc1nc2ccc(C(F)(F)F)cn2c1C(=O)NCc1ccc(N2CCN(c3ccc(OC(F)(F)F)cc3)CC2)cc1 [Compound 188] | < 1 |
| CCc1nc2c(Br)cccn2c1C(=O)NCc1ccc(N2CCC(c3ccc(F)cc3)CC2)cc1 [Compound 189] | 1 to 20 (≈ 0.535 to 10.7 µg/mL) |
| CCc1nc2c(Cl)cccn2c1C(=O)NCc1ccc(N2CCC(c3ccccc3)CC2)cc1 [Compound 190] | < 1 |
| CCc1nc2cc(Br)ccn2c1C(=O)NCc1ccc(N2CCC(c3ccc(OC(F)(F)F)cc3)CC2)cc1 [Compound 191] | < 1 |
| CCc1nc2cc(Br)ccn2c1C(=O)NCc1ccc(N2CCN(c3ccc(OC(F)(F)F)cc3)CC2)cc1 [Compound 192] | < 1 |
| CCc1nc2c(F)cccn2c1C(=O)NCc1ccc(N2CCN(c3ccc(OC(F)(F)F)cc3)CC2)cc1 [Compound 193] | < 1 |
| CCc1nc2cc(Cl)ccn2c1C(=O)NCc1ccc(N2CCN(c3ccc(Cl)cc3)CC2)cc1 [Compound 194] | < 1 |
| CCc1nc2cc(OC)ccn2c1C(=O)NCc1ccc(N2CCC(c3ccc(C(F)(F)F)cc3)CC2)cc1 [Compound 195] | < 1 |
| CCc1nc2ccc(Br)cn2c1C(=O)NCc1ccc(N2CCN(c3ccc(OC(F)(F)F)cc3)CC2)cc1 [Compound 197] | < 1 |
| CCc1nc2c(C(F)(F)F)cccn2c1C(=O)NCc1ccc(N2CCN(c3ccc(F)cc3)CC2)cc1 [Compound 198] | 1 to 20 (≈ 0.526 to 10.5 µg/mL) |
| CCc1nc2c(Br)cccn2c1C(=O)NCc1ccc(N2CCN(c3ccc(Cl)cc3)CC2)cc1 [Compound 199] | < 1 |
| CCc1nc2c(OC)cccn2c1C(=O)NCc1ccc(N2CCN(c3ccc(OC(F)(F)F)cc3)CC2)cc1 [Compound 200] | 1 to 20 (≈ 0.554 to 11.1 µg/mL) |
| CCc1nc2ccc(Br)cn2c1C(=O)NCc1ccc(N2CCN(c3ccc(Cl)cc3)CC2)cc1 [Compound 201] | < 1 |
| CCc1nc2c(C(F)(F)F)cccn2c1C(=O)NCc1ccc(N2CCN(c3ccc(OC(F)(F)F)cc3)CC2)cc1 [Compound 202] | 1 to 20 (≈ 0.592 to 11.8 µg/mL) |
| CCc1nc2cc(C(F)(F)F)ccn2c1C(=O)NCc1ccc(N2CCN(c3ccc(OC(F)(F)F)cc3)CC2)cc1 [Compound 203] | < 1 |
| CCc1nc2cc(Cl)ccn2c1C(=O)NCc1ccc(N2CCN(c3ccc(C(F)(F)F)cc3)CC2)cc1 [Compound 204] | < 1 |
| CCc1nc2cc(Cl)ccn2c1C(=O)NCc1ccc(N2CCC(c3ccc(OC)cc3)CC2)cc1 [Compound 205] | < 1 |
| CCc1nc2cc(C(F)(F)F)ccn2c1C(=O)NCc1ccc(N2CCN(c3ccc(C(F)(F)F)cc3)CC2)cc1 [Compound 206] | < 1 |
| CCc1nc2cc(Br)ccn2c1C(=O)NCc1ccc(N2CCN(c3ccc(C)cc3)CC2)cc1 [Compound 207] | < 1 |
| CCc1nc2cc(Br)ccn2c1C(=O)NCc1ccc(N2CCN(c3ccc(OC)cc3)CC2)cc1 [Compound 208] | < 1 |
| CCc1nc2c(C(F)(F)F)cccn2c1C(=O)NCc1ccc(N2CCN(c3ccc(Cl)cc3)CC2)cc1 [Compound 209] | 1 to 20 (≈ 0.542 to 10.8 µg/mL) |
| CCc1nc2ccc(OC)cn2c1C(=O)NCc1ccc(N2CCN(c3ccc(C(F)(F)F)cc3)CC2)cc1 [Compound 210] | < 1 |

| SMILES | MIC80 [µM] |
| --- | --- |
| CCc1nc2cc(C(F)(F)F)ccn2c1C(=O)NCc1ccc(N2CCN(c3ccc(Cl)cc3)CC2)cc1 [Compound 211] | < 1 |
| CCc1nc2c(OC)cccn2c1C(=O)NCc1ccc(N2CCC(c3ccc(Cl)cc3)CC2)cc1 [Compound 212] | 1 to 20 (≈ 0.503 to 10.1 µg/mL) |
| CCc1nc2c(Br)cccn2c1C(=O)NCc1ccc(N2CCC(c3ccc(Cl)cc3)CC2)cc1 [Compound 213] | < 1 |
| CCc1nc2cc(Br)ccn2c1C(=O)NCc1ccc(N2CCN(c3ccc(C(F)(F)F)cc3)CC2)cc1 [Compound 214] | < 1 |
| CCc1nc2c(OC)cccn2c1C(=O)NCc1ccc(N2CCC(c3ccc(C)cc3)CC2)cc1 [Compound 215] | 1 to 20 (≈ 0.483 to 9.65 µg/mL) |
| CCc1nc2ccc(C)cn2c1C(=O)NCc1ccc(N2CCC(c3ccccc3)CC2)cc1 [Compound 216] | < 1 |
| CCc1nc2c(C(F)(F)F)cccn2c1C(=O)NCc1ccc(N2CCN(c3ccc(C(F)(F)F)cc3)CC2)cc1 [Compound 217] | 1 to 20 (≈ 0.576 to 11.5 µg/mL) |
| CCc1nc2c(Br)cccn2c1C(=O)NCc1ccc(N2CCN(c3ccc(C(F)(F)F)cc3)CC2)cc1 [Compound 218] | < 1 |
| CCc1nc2cc(Br)ccn2c1C(=O)NCc1ccc(N2CCC(c3ccc(C)cc3)CC2)cc1 [Compound 219] | < 1 |
| CCc1nc2cc(OC)ccn2c1C(=O)NCc1ccc(N2CCN(c3ccc(Cl)cc3)CC2)cc1 [Compound 220] | < 1 |
| CCc1nc2cc(Cl)ccn2c1C(=O)NCc1ccc(N2CCC(c3ccc(C)cc3)CC2)cc1 [Compound 221] | < 1 |
| CCc1nc2ccc(C)cn2c1C(=O)NCc1ccc(N2CCC(c3ccc(OC)cc3)CC2)cc1 [Compound 222] | < 1 |
| CCc1nc2ccc(C(F)(F)F)cn2c1C(=O)NCc1ccc(N2CCC(c3ccc(OC(F)(F)F)cc3)CC2)cc1 [Compound 223] | < 1 |
| CCc1nc2c(Cl)cccn2c1C(=O)NCc1ccc(N2CCC(c3ccc(OC(F)(F)F)cc3)CC2)cc1 [Compound 224] | < 1 |
| CCc1nc2c(C)cccn2c1C(=O)NCc1ccc(N2CCC(c3ccc(F)cc3)CC2)cc1 [Compound 225] | < 1 |
| CCc1nc2ccc(C(F)(F)F)cn2c1C(=O)NCc1ccc(N2CCC(c3ccc(Cl)cc3)CC2)cc1 [Compound 226] | < 1 |
| CCc1nc2ccc(C(F)(F)F)cn2c1C(=O)NCc1ccc(N2CCC(c3ccc(F)cc3)CC2)cc1 [Compound 227] | < 1 |
| CCc1nc2cc(C(F)(F)F)ccn2c1C(=O)NCc1ccc(N2CCC(c3ccc(OC(F)(F)F)cc3)CC2)cc1 [Compound 228] | < 1 |
| CCc1nc2cc(F)ccn2c1C(=O)NCc1ccc(N2CCN(c3ccc(C(F)(F)F)cc3)CC2)cc1 [Compound 229] | < 1 |
| CCc1nc2ccccn2c1C(=O)NCc1ccc(N2CCC(c3ccc(C(F)(F)F)cc3)CC2)cc1 [Compound 230] | < 1 |
| CCc1nc2cc(C)ccn2c1C(=O)NCc1ccc(N2CCC(c3ccc(C)cc3)CC2)cc1 [Compound 231] | < 1 |
| CCc1nc2ccc(Cl)cn2c1C(=O)NCc1ccc(N2CCC(NC(=O)Cc3ccc(F)cc3)CC2)cc1 [Compound 232] | > 20 |
| CCc1nc2ccc(Cl)cn2c1C(=O)NCc1ccc(N2CCC(OCc3ccccc3)CC2)cc1 [Compound 233] | < 1 |
| CCc1nc2ccc(Cl)cn2c1C(=O)NCc1ccc(N2CCC(NC(=O)c3ccc(F)cc3)CC2)cc1 [Compound 234] | > 20 |

From patent publication US20160185774A1, “Anti-Infective Compounds” (priority 2013, published 2016)
